The source of these data is US6815195B2, “5-substituted hydantoin racemase, DNA coding for the racemase, and processes for producing optically active amino acids” (Ajinomoto Co. Inc., priority 2000, dated 2004).

Data set [1] deals with HRase. The data set is described as follows: Effect of various reagents such as enzyme inhibitors on HRase activity (residual activity). It counts as biochemical, Microbacterium liquefaciens AJ3912. The conditions noted are these: for effect of reagent on HRase activity (in words): purified HRase pre-incubated with reagent; for Residual Activity (%): relative to activity without reagent (100%), pre-incubation 0° C. 30 min pH 8.0, reaction pH 8.0, 30° C., 30 min, concentration in reaction: NEM 5 mM, CuSO4 2.5 mM, IAA 10 mM, EDTA 10 mM, Methanol 10% (v/v). As for the experimental part:
(§1) Specifically, a reaction solution containing 120 mg/dl L- or D-benzyl hydantoin (BH), 50 mM dibasic potassium phosphate buffer (KPB) (pH 8.0), 5 mM dithiothreitol (DTT) and an HRase enzyme solution was incubated at 37° C. for 30 minutes, and the reaction was stopped by adding a 9-fold excess volume of 1.1 mM CuSO4 and 11.1 mM H3PO4 solution. The precipitates were removed by centrifugation at 20,000 g×10 minutes, and the amount of racemized BH was quantitatively determined by HPLC to estimate the racemization activity. The enzyme activity causing racemization of 1 μmol BH per minute under these conditions was defined as 1 U of the enzyme activity.
1.5 μg/ml purified HRase was pre-incubated at 0° C. for 30 minutes at pH 8.0 with 25 mM DTT, 25 mM N-ethylmaleimide (NEM), 12.5 mM CuSO4, 50 mM monoiodoacetic acid (IAA), 50 mM EDTA or 50% (v/v) methanol. As the enzyme source, each of these mixtures was reacted at pH 8.0, at 30° C. for 30 minutes to measure the residual activity, and the susceptibility of the HRase to each inhibitor was determined. The concentration of each of the enzyme and the inhibitor during the reaction was about ⅕ relative to the concentration during the pre-incubation.
The residual activity was shown as relative activity to the activity (100%) in the absence of the reagent (see Table 2).

Data set [2] deals with HRase. The data set is described as follows: Racemization of optically active 5-substituted hydantoin compounds other than BH (D-amino acid formation with AJ 11220 and HRase, TLC). It counts as biochemical, Microbacterium liquefaciens AJ3912. The conditions noted are these: 1 g/dl substrate, 1.3 μg/ml purified HRase, 2 g/dl wet AJ 11220, 37° C., 22 hours, optical resolution TLC. As for the experimental part:
The ability of the present HRase to catalyze racemization of optically active 5-substituted hydantoin compounds other than BH was examined. The formation of D-amino acid from L-5-substituted hydantoin by a combination of Pseudomonas sp. AJ 11220 and HRase was confirmed in the same manner as in Example 8.
1 g/dl 5-substituted hydantoin of various kinds, together with 1.3 μg/ml purified HRase, 0.1 M KPB (pH 8.0), 0.5 mM CoCl2 and 2 g/dl wet AJ 11220, was subjected to stationary reaction at 37° C. for 22 hours. Each hydantoin consisted of D- and L-isomers as the substrate, and it was confirmed that D-amino acid was formed from the D-isomer substrate in the absence of HRase, and also that D-amino acid was not formed from the L-isomer substrate in the absence of HRase, and then it was judged that when D-amino acid was formed from the L-isomer substrate in the presence of HRase, the substrate was recognized. The formation of D-amino acid was qualitatively estimated by development with optical resolution TLC (MERCK, HPTLC CHIR) with methanol:H2O:acetonitrile=1:1:4.

Data set [3] concerns HRase. The data set is described as follows: Racemization of BH by purified HRase (substrate recognition). The following applies: 0.3 mg/ml purified HRase, 37° C., pH 8.0. It counts as biochemical, Microbacterium liquefaciens AJ3912. As for the experimental part: (§2) A reaction solution containing 0.3 mg/ml purified HRase, 0.12 g/dl D- or L-BH, 50 mM KPB (pH 8.0) and 5 mM DTT was incubated at 37° C. and sampled with time to quantify the amount of BH by HPLC. As the control, the same experiment was performed in an experimental group not containing the enzyme, to quantify the spontaneous racemization of BH.

The nature of data set [4]: HRase activity measurement: racemization of BH quantified by HPLC (specific activity of purified HRase). It counts as biochemical, Microbacterium liquefaciens AJ3912. As for the experimental part:
Measurement of the HRase activity of the HRase of the present invention can be carried out by measuring a change in the optical rotation as the degree of racemization of the optically active D- or L-5-substituted hydantoin compound as the substrate or by high performance liquid chromatography (HPLC) using an optical resolution column.
as §1
The quantitative analysis of optically active BH by analysis in HPLC was conducted by use of Daicel Chemical CHIRALPAK WH 0.46 cmφ×25 cm. The analysis conditions are as follows:
as §2

Data set [5] can be described thus: Production of D-Phe from DL-BH or L-BH by a combination of Agrobacterium sp. AJ11220 and HRase. The following applies: reaction 30 hours. It counts as biochemical. As for the experimental part:
0.5 g/dl (26 mM) DL-BH or L-BH, together with 0.84 μg/ml purified HRase, 0.1 M KPB (pH 8.0), 0.5 mM CoCl2 and 2 g/dl wet AJ11220 microorganism, was subjected to stationary reaction at 30° C. Oxygen was previously removed from the reaction solution by replacing it by nitrogen. The reaction solution was sampled with time and analyzed by HPLC to quantify the formed D-Phe.

The mark [6] stands for this setting: calculated from initial reaction rate, 37° C., pH 8.0, 5 mM DTT.

“Also recorded” adds a separate entry of the source.

Regarding `CCN1C(=O)C=CC1=O` [NEM, N-ethylmaleimide], in the data set on HRase [1], the “effect of reagent on HRase activity (in words)” value (shortened to “effect of reagent”) was “significantly inhibited; also recorded: strongly inhibited” and the “Residual Activity (%)” value is listed as 0%.

With `O=C1NC(=O)[C@H](Cc2c[nH]c3ccccc23)N1` [L-5-indolyl methyl hydantoin], in the data set on HRase [2], the “racemization by HRase (D-amino acid formed from L-isomer substrate, qualitative)” value (“racemization by HRase” for short) is “racemized”.

For `CO` [Methanol, methanol], in the data set on HRase [1], the “effect of reagent” value is recorded as “did not influence” and the “Residual Activity (%)” value came to 99%.

In the case of `O=C(O)CN(CCN(CC(=O)O)CC(=O)O)CC(=O)O` [EDTA, ethylenediaminetetraacetic acid], in the data set on HRase [1], the “effect of reagent” value is “no significant inhibitory effect; also recorded: minimally inhibited” and the “Residual Activity (%)” value came out at 86%.

Take `O=S(=O)([O-])[O-].[Cu+2]` [CuSO4]: the results for the “effect of reagent” value in the data set on HRase [1] (listed as Cu^2+) and in the data set with HRase [1] (listed as copper ion) were “significantly inhibited” and “strongly inhibited”, respectively. The “Residual Activity (%)” value with HRase [1] is 0%.

As to `O=C1NC(=O)[C@H](Cc2ccccc2)N1` [L-BH, L-benzyl hydantoin], the “recognition as substrate by HRase” value in the data set with HRase [3] is listed as “recognized”.

Turning to `O=C1NC(=O)[C@H](Cc2ccc(O)cc2)N1` [L-5-(p-hydroxybenzyl) hydantoin], the “racemization by HRase” value in the data set on HRase [2] was “racemized”.

`O=C1NC(=O)[C@@H](Cc2ccccc2)N1` [D-BH, D-benzyl hydantoin]: the “recognition as substrate by HRase” value with HRase [3] is listed as “recognized”.

Consider `O=C(O)CI` [IAA, monoiodoacetic acid], for which, in the data set on HRase [1], the “effect of reagent” value is “strongly inhibited” and the “Residual Activity (%)” value is recorded as 0%. In the data set on HRase [1] (listed as iodoacetic acid), the “effect of reagent” value is listed as “significantly inhibited”.

On to `CC(C)C[C@@H]1NC(=O)NC1=O` [L-5-isobutyl hydantoin], for which the “racemization by HRase” value in the data set on HRase [2] is recorded as “racemized”.

In the case of `O[C@H](CS)[C@H](O)CS` (racemic) [DTT, dithiothreitol], the “effect of reagent” value with HRase [1] is given as “activated”.

B1: HRase: 5-substituted hydantoin racemase from Microbacterium liquefaciens AJ3912, amino acid sequence SEQ ID NO:2 (protein)
chain: MRIHVINPNSSVDLTDAVAEAARSVVSPGTTITAVNPSKGPTVIEGSYDEVLATYHLVEEVRRAEREDRPDAYVIACFGDPGLDAVRELTDRPVVGIAEAAIQMTSFVAASFSIVSILPRVRKHLHELVHRAGATDRLASLKLPDLGVLAFHEDEAAAFETLRRVAGEAVREDGAESIVLGCAGMAGFARQLSEELGVPVIDAVEAACRVAESLVALGYRTSKANTYQAPTEKQYL
For the molecule B1, the “specific activity of the purified HRase” value in data set [4] (after purification (Example 1), 1 U = racemization of 1 μmol BH per minute) worked out at 79 U/mg. Moreover, in data set [4] (setting [6]), the “specific activity of the purified HRase, formation of D-BH from L-BH” value is listed as 100 U/mg and the “specific activity of the purified HRase, formation of L-BH from D-BH” value is on record as 79 U/mg. In addition, the “amount of D-Phe formed from DL-BH” value in data set [5] (HRase added (0.84 μg/ml), 26 mM DL-BH, 2 g/dl wet AJ11220, 30° C.) came out at 24.6 mM. In addition, the “amount of D-Phe formed from L-BH” value in data set [5] (HRase added (0.84 μg/ml), 26 mM L-BH, 2 g/dl wet AJ11220, 30° C.) is recorded as 24.6 mM. For the same molecule, the “molar yield of D-Phe from DL-BH” value in data set [5] (HRase added, 26 mM DL-BH) worked out at 94%. For the same molecule, the “molar yield of D-Phe from L-BH” value in data set [5] (HRase added, 26 mM L-BH) was determined as 94%.
